Assay results taken from paper PMC4879574, “Identification of Leishmania donovani Topoisomerase 1 inhibitors via intuitive scaffold hopping and bioisosteric modification of known Top 1 inhibitors” (Scientific Reports, 2016).
“And” between values parts separate entries of the source, which are not always exact repeats. Identical values can stand only once. Like-named read-outs stand apart in the source and are kept apart here.

Experiments:
[1] = target: Leishmania donovani Topoisomerase 1 (LdTop1) (Leishmania donovani, UniProt A0A3Q8IHS4+Q8WQM6); test: Plasmid DNA relaxation assay, LdTop1 (simultaneous incubation); assay type: biochemical
Chain of Leishmania donovani Topoisomerase 1 (LdTop1) (Q8WQM6 entry or part of it): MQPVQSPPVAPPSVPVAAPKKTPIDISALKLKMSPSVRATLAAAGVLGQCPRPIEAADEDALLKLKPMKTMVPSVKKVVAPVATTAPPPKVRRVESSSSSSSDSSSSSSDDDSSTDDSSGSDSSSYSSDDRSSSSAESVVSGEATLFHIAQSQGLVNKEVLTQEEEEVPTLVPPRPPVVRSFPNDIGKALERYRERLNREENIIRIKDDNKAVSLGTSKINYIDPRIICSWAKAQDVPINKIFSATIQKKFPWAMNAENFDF
Chain of Leishmania donovani Topoisomerase 1 (LdTop1) (A0A3Q8IHS4 entry or part of it): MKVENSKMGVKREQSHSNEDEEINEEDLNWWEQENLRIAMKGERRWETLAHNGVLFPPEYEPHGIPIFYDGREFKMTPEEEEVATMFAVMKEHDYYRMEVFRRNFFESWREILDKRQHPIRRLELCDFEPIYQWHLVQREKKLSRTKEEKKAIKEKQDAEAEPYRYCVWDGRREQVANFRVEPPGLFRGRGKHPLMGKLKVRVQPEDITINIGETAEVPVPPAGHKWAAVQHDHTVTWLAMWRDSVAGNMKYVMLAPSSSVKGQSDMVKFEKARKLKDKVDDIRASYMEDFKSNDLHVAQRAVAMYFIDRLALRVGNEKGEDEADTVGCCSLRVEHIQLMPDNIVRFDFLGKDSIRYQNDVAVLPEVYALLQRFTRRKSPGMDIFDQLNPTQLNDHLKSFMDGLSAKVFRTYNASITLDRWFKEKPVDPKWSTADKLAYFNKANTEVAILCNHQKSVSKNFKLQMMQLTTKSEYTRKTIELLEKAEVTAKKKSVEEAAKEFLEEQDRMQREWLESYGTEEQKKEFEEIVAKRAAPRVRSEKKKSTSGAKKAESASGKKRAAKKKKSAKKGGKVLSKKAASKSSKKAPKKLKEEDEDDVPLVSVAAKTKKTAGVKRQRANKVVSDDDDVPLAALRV
Method: To investigate the inhibitory effect of our library compounds on the DNA relaxation activity of the recombinant Human and Leishmania topoisomerase 1 (Table 2), assays were performed involving supercoiled plasmid DNA, the enzymes (HTop1 and LdTop1) and our molecules. The enzymes were purified by the standard literature procedure.
(§1) All the experiments were conducted thrice and representative data from once set of them are expressed as mean ± SD.
(§2) The type I DNA topoisomerase are assayed by decreased mobility of the relaxed isomers of supercoiled pBS (SK^+) [pBlue-script (SK^+)] DNA in agarose gel. The relaxation assay was carried out as described previously with LdTop1B and HTop I, diluted in the relaxation buffer (25 mM Tris–HCl, pH 7.5, 5% glycerol, 0.5 mM DTT, 10 mM MgCl2, 50 mM KCl, […] and […] BSA) and supercoiled plasmid pBS (SK^+) DNA (85–95% were negatively supercoiled, with remainder being nicked circles)[9][28][29]. The reconstituted enzyme LdTop1B was assayed at 50 mM KCl concentration as described before. For all kinetic studies, the reaction mixtures containing the buffer and DNA were heated to 37 °C before addition of the enzymes. The reactions were rapidly quenched using stop solution and kept on ice. The gels were stained with ethidium bromide (EtBr) ([…]) and the amount of supercoiled monomer DNA band fluorescence were quantified by integration using Gel Doc 2000 under UV illumination (Bio-Rad Quantity One Software), as described previously.
Cells harvested from 1 litre of culture were separately lysed by lysozyme/sonication, and the proteins were purified through Ni-NTA (Ni^2+-nitriloacetate-agarose column (Qiagen, Hilden, Germany) followed by a phospho-cellulose column (P11 cellulose; Whatman, Maidstone Kent, UK) as described previously. Finally, the purified proteins LdTOP1L and LdTOP1S were stored at −70 °C. The concentrations of each protein were quantified by using Bradford Reagent (PIERCE, Thermo Fisher Scientific Inc., Rockford, USA). Purified LdTOP1L was mixed with purified LdTOP1S at a molar ratio of 1:1 to a total protein concentration of 0.5 mg/ml in reconstitution buffer [50 mM potassium phosphate, pH 7.5, 0.5 mM DTT, 1 mM EDTA, 0.1 mM PMSF and 10% (v/v) glycerol]. The mixture was dialyzed overnight at 4 °C and dialyzed fractions were used for plasmid relaxation activity.

COS7 cells = test: Cytotoxicity on mammalian COS7 cell lines; assay type: cell-based
[2] = Cytotoxicity on mammalian COS7 cell lines; assay type: cell-based; conditions: African green monkey, COS7 cells
LdTop1 = LdTop1 (Leishmania donovani, UniProt A0A3Q8IHS4+Q8WQM6); test: Preincubation DNA relaxation inhibition assay, LdTop1; assay type: biochemical
Chain of LdTop1 (Q8WQM6 entry or part of it): as the sequence (Q8WQM6 entry or part of it) above
Chain of LdTop1 (A0A3Q8IHS4 entry or part of it): as the sequence (A0A3Q8IHS4 entry or part of it) above
Method: To interrogate whether compound 4 interacts with the enzyme, it was preincubated with LdTop1 at different concentration for 5 minutes at 37 °C before the addition of substrate DNA (Fig. 9a).
as §1, §2

[3] = system: L. donovani AG83 promastigotes; test: MTT assay on extracellular promastigotes; assay type: cell-based; conditions: Leishmania donovani, 12 h, read-out: Anti-promastigote activity IC50
Method: Next, compound 4 was screened against extracellular promastigotes.
L. donovani AG83 promastigotes (3.0 × 10^6 cells/ml) are incubated with different concentrations of drugs/compounds under study (1, 2, 5, 10 and 20 μM) for 12 h, following which the survival percentage is estimated by MTT assay. Yellow MTT (3-(4,5-dimethylthiazol- 2-yl)-2,5-diphenyltetrazolium bromide, a tetrazole) is reduced to purple formazan in the mitochondria of living cells. The formazan is then solubilized, and the concentration is determined by optical density at 570 nm. Metabolically active cells convert MTT to formazan, thereby generating a quantitative measure of viability and cytotoxicity. Percentage of viable promastigotes in each treatment groups are determined with respect to untreated control cells.

- inhibition at 12.5 µM ([1]; LdTop1 relaxation, 12.5 uM, read-out: % inhibition, mean data): 97.2%
- inhibition at 25 µM ([1]; LdTop1 relaxation, 25 uM, read-out: % inhibition, mean data): 99.9%
- % inhibition (CPT 100%), data 2 ([1]; LdTop1 relaxation, 50 uM): 100.001%
- inhibition at 50 µM ([1]; LdTop1 relaxation, 50 uM, read-out: % inhibition, mean data): 100%
- % inhibition (CPT 100%), data 2 ([1]; LdTop1 relaxation, 100 uM): 100.003%
- inhibition at 100 µM ([1]; LdTop1 relaxation, 100 uM, read-out: % inhibition, mean data): 100%
- EC50 ([1]; incubated simultaneously with LdTop1 and supercoiled DNA, read-out: EC50, simultaneous assay): 3.77 ± 0.27 µM
- LdTop1 inhibitory activity ([1]; plasmid DNA relaxation): considerable activity
- EC50 ([1]; plasmid DNA relaxation, averages of three experiments, read-out: LDTop1 inhibition (EC50)): 4 µM and 3.51 µM
- inhibition at 12.5 µM ([1]; read-out: % inhibition (CPT 100%), data 1, LdTop1 relaxation, 12.5 uM): 97.3%
- inhibition at 25 µM ([1]; read-out: % inhibition (CPT 100%), data 1, LdTop1 relaxation, 25 uM): 99.9%
- inhibition at 50 µM ([1]; read-out: % inhibition (CPT 100%), data 1, LdTop1 relaxation, 50 uM): 100%
- inhibition at 100 µM ([1]; read-out: % inhibition (CPT 100%), data 1, LdTop1 relaxation, 100 uM): 100%
- inhibition at 0.62 µM ([1]; read-out: % inhibition (CPT 100%), data 1, simultaneous, 0.62 uM): 7.36%
- inhibition at 1.25 µM ([1]; read-out: % inhibition (CPT 100%), data 1, simultaneous, 1.25 uM): 23.5%
- inhibition at 2.5 µM ([1]; read-out: % inhibition (CPT 100%), data 1, simultaneous, 2.5 uM): 42.8%
- inhibition at 5 µM ([1]; read-out: % inhibition (CPT 100%), data 1, simultaneous, 5 uM): 60.1%
- inhibition at 10 µM ([1]; read-out: % inhibition (CPT 100%), data 1, simultaneous, 10 uM): 88.3%
- inhibition at 20 µM ([1]; read-out: % inhibition (CPT 100%), data 1, simultaneous, 20 uM): 91.6%
- inhibition at 12.5 µM ([1]; read-out: % inhibition (CPT 100%), data 2, LdTop1 relaxation, 12.5 uM): 97.1%
- inhibition at 25 µM ([1]; read-out: % inhibition (CPT 100%), data 2, LdTop1 relaxation, 25 uM): 99.9%
- inhibition at 50 µM ([1]; read-out: % inhibition (CPT 100%), data 2, LdTop1 relaxation, 50 uM): 100%
- inhibition at 100 µM ([1]; read-out: % inhibition (CPT 100%), data 2, LdTop1 relaxation, 100 uM): 100%
- inhibition at 0.62 µM ([1]; read-out: % inhibition (CPT 100%), data 2, simultaneous, 0.62 uM): 8.88%
- inhibition at 1.25 µM ([1]; read-out: % inhibition (CPT 100%), data 2, simultaneous, 1.25 uM): 22.5%
- inhibition at 2.5 µM ([1]; read-out: % inhibition (CPT 100%), data 2, simultaneous, 2.5 uM): 43.7%
- inhibition at 5 µM ([1]; read-out: % inhibition (CPT 100%), data 2, simultaneous, 5 uM): 60.9%
- inhibition at 10 µM ([1]; read-out: % inhibition (CPT 100%), data 2, simultaneous, 10 uM): 86.5%
- inhibition at 20 µM ([1]; read-out: % inhibition (CPT 100%), data 2, simultaneous, 20 uM): 92.9%
- inhibition at 0.62 µM ([1]; simultaneous, 0.62 uM, read-out: % inhibition, mean data): 8.12%
- inhibition at 1.25 µM ([1]; simultaneous, 1.25 uM, read-out: % inhibition, mean data): 23%
- inhibition at 2.5 µM ([1]; simultaneous, 2.5 uM, read-out: % inhibition, mean data): 43.3%
- inhibition at 5 µM ([1]; simultaneous, 5 uM, read-out: % inhibition, mean data): 60.5%
- inhibition at 10 µM ([1]; simultaneous, 10 uM, read-out: % inhibition, mean data): 87.4%
- % inhibition, mean data ([1]; simultaneous, 20 uM): 92.2648%
- inhibition at 20 µM ([1]; simultaneous, 20 uM, read-out: % inhibition, mean data): ~92%
- EC50 ([1]; supplement sheet, simultaneous, concentrations in uM, read-out: EC50 of 4-Sim): 3.77 µM
- inhibition at 0.62 µM (LdTop1; pre-incubation, 0.62 uM, read-out: % inhibition, mean data): 27.4%
- inhibition at 1.25 µM (LdTop1; pre-incubation, 1.25 uM, read-out: % inhibition, mean data): 49%
- inhibition at 2.5 µM (LdTop1; pre-incubation, 2.5 uM, read-out: % inhibition, mean data): 65.9%
- inhibition at 5 µM (LdTop1; pre-incubation, 5 uM, read-out: % inhibition, mean data): 91.2%
- inhibition at 10 µM (LdTop1; pre-incubation, 10 uM, read-out: % inhibition, mean data): 97.4%
- inhibition at 20 µM (LdTop1; pre-incubation, 20 uM, read-out: % inhibition, mean data): ~100%
- EC50 (LdTop1; preincubated with LdTop1 5 min 37 °C before DNA, read-out: EC50, preincubation assay): 1.72 ± 0.23 µM
- inhibition at 0.62 µM (LdTop1; read-out: % inhibition (CPT 100%), data 1, pre-incubation, 0.62 uM): 27.1%
- inhibition at 1.25 µM (LdTop1; read-out: % inhibition (CPT 100%), data 1, pre-incubation, 1.25 uM): 48.2%
- inhibition at 2.5 µM (LdTop1; read-out: % inhibition (CPT 100%), data 1, pre-incubation, 2.5 uM): 67.4%
- inhibition at 5 µM (LdTop1; read-out: % inhibition (CPT 100%), data 1, pre-incubation, 5 uM): 91.4%
- inhibition at 10 µM (LdTop1; read-out: % inhibition (CPT 100%), data 1, pre-incubation, 10 uM): 97.2%
- inhibition at 20 µM (LdTop1; read-out: % inhibition (CPT 100%), data 1, pre-incubation, 20 uM): 100%
- inhibition at 0.62 µM (LdTop1; read-out: % inhibition (CPT 100%), data 2, pre-incubation, 0.62 uM): 27.7%
- inhibition at 1.25 µM (LdTop1; read-out: % inhibition (CPT 100%), data 2, pre-incubation, 1.25 uM): 49.8%
- inhibition at 2.5 µM (LdTop1; read-out: % inhibition (CPT 100%), data 2, pre-incubation, 2.5 uM): 64.5%
- inhibition at 5 µM (LdTop1; read-out: % inhibition (CPT 100%), data 2, pre-incubation, 5 uM): 91%
- inhibition at 10 µM (LdTop1; read-out: % inhibition (CPT 100%), data 2, pre-incubation, 10 uM): 97.5%
- inhibition at 20 µM (LdTop1; read-out: % inhibition (CPT 100%), data 2, pre-incubation, 20 uM): 100%
- EC50 (LdTop1; supplement sheet, pre-incubation, concentrations in uM, read-out: EC50 of 4-PI): 1.72 µM
- IC50 [3]: 4.21 ± 0.21 µM
SMILES: Cc1cc2c(c(=O)[nH]1)C(=O)O/C2=C\c1ccc(O)c(O)c1 [Compound 4]
- Selectivity Index (SI) (COS7 cells; CC50 against COS7/IC50 against promastigote): ~100
- Cytotoxicity against COS7 (COS7 cells; COS7): no cytotoxicity
- CC50 [2]: 390.6 ± 3.15 µM
